Experimental data published in PubChem BioAssay AID434951 (Broad Institute, 2010).
Active and inactive are the calls of the source.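 The calls were made as follows: active = a fitted half-maximal concentration EC50 for the rise in nuclear signal no higher than ten times the top dose tested; inconclusive = flat fit with activity between 30% and 70%, or unusable fit; inactive = EC50 beyond ten times the top dose.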

Biological target: Hypoxia-inducible factor 1-alpha (Homo sapiens) (UniProt Q16665)
Assay: HIF pathway activation, GFP-HIF1alpha translocation – imaging, fluorescence, U2OS GFP-HIF1alpha, confirmation (AID 434951)
Settings: U2OS GFP-HIF1alpha nuclear intensity, high-content imaging

Sequence of Hypoxia-inducible factor 1-alpha (Homo sapiens) (Q16665 whole entry, looked up): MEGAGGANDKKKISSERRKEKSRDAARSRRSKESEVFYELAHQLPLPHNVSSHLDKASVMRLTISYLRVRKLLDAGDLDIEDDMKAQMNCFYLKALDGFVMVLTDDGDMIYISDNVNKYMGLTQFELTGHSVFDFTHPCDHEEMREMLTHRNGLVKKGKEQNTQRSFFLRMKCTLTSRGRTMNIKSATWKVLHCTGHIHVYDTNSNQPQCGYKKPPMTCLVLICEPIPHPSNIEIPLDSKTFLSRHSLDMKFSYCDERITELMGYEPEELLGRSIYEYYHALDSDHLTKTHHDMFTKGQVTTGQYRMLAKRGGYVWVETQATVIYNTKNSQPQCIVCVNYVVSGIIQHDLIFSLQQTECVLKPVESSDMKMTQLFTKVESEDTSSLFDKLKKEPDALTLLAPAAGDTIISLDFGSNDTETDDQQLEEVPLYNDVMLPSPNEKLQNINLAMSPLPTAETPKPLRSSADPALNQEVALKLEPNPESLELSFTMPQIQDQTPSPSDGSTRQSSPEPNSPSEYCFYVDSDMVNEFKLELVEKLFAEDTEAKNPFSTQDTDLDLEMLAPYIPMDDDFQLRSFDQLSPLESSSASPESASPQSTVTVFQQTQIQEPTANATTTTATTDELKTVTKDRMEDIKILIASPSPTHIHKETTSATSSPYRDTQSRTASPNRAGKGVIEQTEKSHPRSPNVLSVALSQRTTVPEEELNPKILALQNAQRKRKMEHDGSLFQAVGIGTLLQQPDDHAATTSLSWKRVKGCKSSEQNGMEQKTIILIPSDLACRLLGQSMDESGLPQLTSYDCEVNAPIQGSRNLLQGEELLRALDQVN

Question: For `Oc1ccc(CCNc2c3ccccc3nc3ccccc23)cc1O`, which EC50 is on record?
Answer: > 35 µM (inactive)

Question: `C(=N\Nc1nc2ccccc2[nH]1)/c1cccc2cccnc12` was tested. Which EC50 did it give?
Answer: 12 µM

Question: With `CCN(CC)c1ccc(/C=N/NC(=O)c2ccc3nc[nH]c3c2)c(O)c1` as the compound, how does the EC50 read?
Answer: 10.5 µM

Question: With `COc1ccc(OC)c(C2=Nn3c(nnc3-c3cc(C)[nH]n3)SC2)c1` as the compound, how does the EC50 read?
Answer: > 35 µM (inactive)

Question: `c1ccc(Cc2nnc(-c3ccccc3)o2)cc1` was tested. Which EC50 did it give?
Answer: 17.7 µM

Question: `Nc1cc2c3c(cccc3c1)C(=O)N(CCN1CCCC1)C2=O` was tested. Which EC50 did it give?
Answer: 16.4 µM

Question: With `O=S(=O)(/C=C/c1ccccc1)N1CCNCC1` as the compound, how does the EC50 read?
Answer: > 35 µM (inactive)

Question: How did the EC50 turn out when `CC(=O)Nc1ccc2nc(NC(=O)COc3ccccc3C)sc2c1` was run?
Answer: > 35 µM (inactive)

Question: `Cc1ccc2nc(SCC(=O)N3CCCCC3)nc(=O)n2c1` was tested. Which EC50 did it give?
Answer: > 35 µM (inactive)

Question: With `C1CCC2(CC1)C1=C(CCCC1)Nc1nnnn12` as the compound, how does the EC50 read?
Answer: > 35 µM (inactive)

Question: How did the EC50 turn out when `O=C(c1ccc(F)cc1)N(Cc1cccs1)C1CCS(=O)(=O)C1` (configuration not stated) was run?
Answer: > 35 µM (inactive)

Question: `COc1ccc2nc(NC(=O)CSc3nccc(C)n3)sc2c1` was tested. Which EC50 did it give?
Answer: > 35 µM (inactive)

Question: `CCCC(=O)NC(c1cccs1)c1cc(Cl)c2cccnc2c1O` (configuration not stated) was tested. Which EC50 did it give?
Answer: 7.25 µM

Question: For `CCN1/C(=C/c2ccc3cc(C)ccc3[n+]2CC)Sc2ccccc21`, which EC50 is on record?
Answer: 13.1 µM

Question: `Cc1ccc(C(=O)Nc2c3c(nn2C(C)(C)C)CS(=O)(=O)C3)cc1C` was tested. Which EC50 did it give?
Answer: > 35 µM (inactive)

Question: With `CCOc1ccccc1N1CCN(C(=S)NC(=O)C23CC4CC(CC(C4)C2)C3)CC1` as the compound, how does the EC50 read?
Answer: > 35 µM (inactive)

Question: For `O=C1OCc2cc(NC(=O)C34CC5CC(CC(C5)C3)C4)ccc21`, which EC50 is on record?
Answer: > 35 µM (inactive)

Question: For `Oc1c(CN2CCN(c3ccccc3)CC2)cc(Br)c2cccnc12`, which EC50 is on record?
Answer: 5.65 µM

Question: Which EC50 does the source give for `CCN(CC(=O)Nc1ccc2c(c1)OCCO2)CC(=O)Nc1ccc2c(c1)OCO2` here?
Answer: > 35 µM (inactive)

Question: Which EC50 does the source give for `CCn1ncc(C2=NOC(C(=O)Nc3ccc4c(c3)OCO4)C2)c1C` (configuration not stated) here?
Answer: > 35 µM (inactive)

Question: How did the EC50 turn out when `CC1CCN(Cc2nnnn2CCCC(=O)NCCc2cnn(C)c2)CC1` was run?
Answer: > 35 µM (inactive)

Question: Which EC50 does the source give for `O=C(N/N=C/c1c(O)ccc2ccccc12)c1ccc(CO)nc1` here?
Answer: 6.6 µM

Question: How did the EC50 turn out when `CCOc1nc(Nc2ccc(OC)cc2)nc(OCC)n1` was run?
Answer: > 35 µM (inactive)

Question: For `Cc1ccc(CNc2ccc3c(c2)nc(C)n3C)cc1`, which EC50 is on record?
Answer: > 35 µM (inactive)

Question: With `ON=C1c2cc(OCCN3CCCCC3)ccc2-c2ccc(OCCN3CCCCC3)cc21` as the compound, how does the EC50 read?
Answer: 8.97 µM

Question: `C/C(=N\Nc1nc2ccccc2[nH]1)c1ccccn1` was tested. Which EC50 did it give?
Answer: 1.8 µM

Question: With `O=C(N/N=C/c1c(O)ccc2ccccc12)c1[nH]ncc1Br` as the compound, how does the EC50 read?
Answer: 7.11 µM

Question: With `CC1(C)CC(NC(=O)CCC2CCCC2)CC(C)(C)N1` as the compound, how does the EC50 read?
Answer: > 35 µM (inactive)

Question: How did the EC50 turn out when `CCN(Cc1ccccc1)C(=O)CCNS(=O)(=O)c1ccc2c(c1)CC(C)N2C(C)=O` (configuration not stated) was run?
Answer: > 35 µM (inactive)

Question: For `O=c1[nH]c(C2CCN(S(=O)(=O)c3ccc(C(F)(F)F)cc3)CC2)nc2c1nnn2Cc1ccc(F)cc1`, which EC50 is on record?
Answer: > 35 µM (inactive)

Question: How did the EC50 turn out when `Cc1ccc(C)c(-n2nnnc2Sc2nnnn2-c2ccccc2)c1` was run?
Answer: > 35 µM (inactive)

Question: With `Cc1ccc(/C=N/NC(=O)c2ccc(Br)o2)s1` as the compound, how does the EC50 read?
Answer: > 35 µM (inactive)

Question: For `CC(Oc1ccc2ccc(=O)oc2c1)C(=O)NCCN1CCOCC1` (configuration not stated), which EC50 is on record?
Answer: > 35 µM (inactive)

Question: With `Cc1cc(N/C=C/C(=O)c2ccc(Br)cc2)no1` as the compound, how does the EC50 read?
Answer: > 35 µM (inactive)

Question: `CCCNC(=O)c1cc(-c2ccco2)on1` was tested. Which EC50 did it give?
Answer: 5.66 µM

Question: For `O=C(CSc1nnc(-c2ccccc2Cl)o1)N1CCOCC1`, which EC50 is on record?
Answer: > 35 µM (inactive)

Question: How did the EC50 turn out when `O=C1N/C(=C/c2cccs2)C(=O)N1Cc1ccc(Br)cc1` was run?
Answer: > 35 µM (inactive)

Question: `CCCCNC(=S)Nc1ccc2cn[nH]c2c1` was tested. Which EC50 did it give?
Answer: > 35 µM (inactive)

Question: With `CC(C)COc1cccc(C(=O)NNC(=O)C2COc3ccccc3O2)c1` (configuration not stated) as the compound, how does the EC50 read?
Answer: > 35 µM (inactive)

Question: `COC(=O)/C(C#N)=C/c1c(N2CCN(Cc3ccc4c(c3)OCO4)CC2)nc2c(C)cccn2c1=O` was tested. Which EC50 did it give?
Answer: > 35 µM (inactive)

Question: With `COc1ccc(C2CC(c3cccs3)=NN2C(=O)CSc2nc(=O)n3cc(C)ccc3n2)cc1` (configuration not stated) as the compound, how does the EC50 read?
Answer: > 35 µM (inactive)

Question: For `O=C(CCSc1nc2ccccc2s1)N/N=C/c1c(O)ccc2ccccc12`, which EC50 is on record?
Answer: 11.5 µM

Question: `CC(C)c1onc(C(=O)Nc2sc3c(c2C#N)CCC3)c1[N+](=O)[O-]` was tested. Which EC50 did it give?
Answer: > 35 µM (inactive)

Question: With `COc1ccc(CNC(=S)N/N=C/c2ccc(O)c(OC)c2)cc1` as the compound, how does the EC50 read?
Answer: > 35 µM (inactive)

Question: Which EC50 does the source give for `CC(=O)NC(c1ccc(Cl)cc1Cl)c1ccc2cccnc2c1O` (configuration not stated) here?
Answer: 12.8 µM

Question: With `Cc1ccc(N2CC(=O)Nc3c(sc4nc(C)cc(C)c34)C2=O)cc1` as the compound, how does the EC50 read?
Answer: > 35 µM (inactive)

Question: For `CCOc1ccccc1CN1CCN(S(C)(=O)=O)CC1`, which EC50 is on record?
Answer: > 35 µM (inactive)

Question: For `Oc1ccc2ccccc2c1N=Nc1ccccn1`, which EC50 is on record?
Answer: 9 µM

Question: `COc1ccc2cc3cc(C(=O)N4CCN(c5ccccn5)CC4)oc3nc2c1` was tested. Which EC50 did it give?
Answer: > 35 µM (inactive)

Question: With `c1ccc(CSc2nnc(-c3ccco3)o2)cc1` as the compound, how does the EC50 read?
Answer: > 35 µM (inactive)

Question: How did the EC50 turn out when `CCCc1sc(N/N=C/c2ccccn2)nc1-c1ccc(F)cc1` was run?
Answer: 6.01 µM

Question: `O=C(COc1cccc2ccccc12)Nc1ccc(Cl)cc1C(=O)O` was tested. Which EC50 did it give?
Answer: > 35 µM (inactive)
